Source: patent publication US20030199516A1, “Methods of treating infection by drug resistant bacteria” (Genesoft, Inc., priority 2001, published 2003)

What follows are compounds tested on S. aureus ATCC 33591 (assay: NCCLS broth microdilution MIC). Details: Col. B = S. aureus ATCC 33591 (MRSA).
Format: cell-based, Staphylococcus aureus
Excerpt: (§1) In vitro antibacterial activity data were collected for the following Gram-positive bacteria: Staphylococcus aureus (ATCC 27660, ATCC 33591 and ATCC 43300, all methicillin resistant strains (MRSA's)); Streptococcus pneumoniae (ATCC 51422, a penicillin resistant strain (PRSP)), Enterococcus faecium (ATCC 51559, and/or a vancomycin resistant strain (VRE)). Additionally, antifungal activity data were collected for Candida albicans (ATCC 38247). Minimal inhibition concentrations (MIC's) were determined using the National Committee for Clinical Laboratory Standards (NCCLS) broth microdilution assay in microtiter plates, as set forth in: (1) the guidelines of the National Committee for Clinical Laboratory Standards (NCCLS) Document M7-A4 (NCCLS, 1997); (2) the guidelines of the National Committee for Clinical Laboratory Standards (NCCLS) Document M11-A4 (NCCLS, 1997); and (3) the guidelines and reference method of the National Committee for Clinical Laboratory Standards (NCCLS) Document M27-T (NCCLS, 1995). For antifungal essays, the method recommended in Murray, PR., 1995 Manual of Clinical Microbiology (ASM Press, Washington, D.C.), was employed.

Minimum Inhibitory Concentration (MIC) | SMILES
+ (+ = MIC ≦ 2) | Cn1cc(NC(=O)c2cc3ccccc3cn2)cc1C(=O)Nc1cc(C(=O)Nc2cc(C(=O)NCCN3CCCCC3)ns2)n(C)c1 [Compound 19]
− (− = MIC > 2) | Cn1cc(NC(=O)c2cc(NC(=O)c3cc(NC(=O)c4cc5ccccc5cn4)cn3C)cn2C)cc1C(=O)NCCc1cccnc1 [Compound 14]
++ (++ = MIC ≦ 1) | Cn1cc(NC(=O)c2cc(NC(=O)c3cc(NC(=O)c4sc5ccccc5c4Cl)c[nH]3)cn2C)cc1C(=O)NCCN1CCOCC1 [Compound 9]

SMILES | Minimum Inhibitory Concentration (MIC)
Cn1cc(NC(=O)c2cc(NC(=O)c3cc(NC(=O)c4ccc(Cl)cc4F)c[nH]3)cn2C)cc1C(=O)NCCN1CCOCC1 [Compound 10] | − (− = MIC > 2)

The compounds below were run on S. aureus ATCC 43300 (assay: NCCLS broth microdilution MIC). Details: Col. C = S. aureus ATCC 43300 (MRSA).
Format: cell-based, Staphylococcus aureus
Excerpt: as §1

Minimum Inhibitory Concentration (MIC) | SMILES
+ (+ = MIC ≦ 2) | Cn1cc(NC(=O)c2cc(NC(=O)c3cc(NC(=O)c4sc5ccccc5c4Cl)c[nH]3)cn2C)cc1C(=O)NCCN1CCOCC1 [Compound 9]

What follows are compounds tested on S. aureus ATCC 27660 (assay: NCCLS broth microdilution MIC). Details: Col. A = S. aureus ATCC 27660 (MRSA).
Format: cell-based, Staphylococcus aureus
Excerpt: as §1

Minimum Inhibitory Concentration (MIC) | SMILES
++ (++ = MIC ≦ 1) | Cn1cc(NC(=O)c2cc3ccccc3cn2)cc1C(=O)Nc1cc(C(=O)Nc2cc(C(=O)NCCN3CCCCC3)ns2)n(C)c1 [Compound 19]
++ (++ = MIC ≦ 1) | Cn1cc(NC(=O)c2cc(NC(=O)c3cc(NC(=O)c4cc5ccccc5cn4)cn3C)cn2C)cc1C(=O)NCCc1cccnc1 [Compound 14]
++ (++ = MIC ≦ 1) | Cn1cc(NC(=O)c2cc(NC(=O)c3cc(NC(=O)c4sc5ccccc5c4Cl)c[nH]3)cn2C)cc1C(=O)NCCN1CCOCC1 [Compound 9]

SMILES | Minimum Inhibitory Concentration (MIC)
Cn1cc(NC(=O)c2cc(NC(=O)c3cc(NC(=O)c4ccc(Cl)cc4F)c[nH]3)cn2C)cc1C(=O)NCCN1CCOCC1 [Compound 10] | + (+ = MIC ≦ 2)

Each compound was assayed against target sequence AATACT (310 bp fragment, Plasmid B) (assay: Quantitative DNase I footprint titration). Details: 310 bp B, 22° C., pH 7.0, read-out: Dissociation Constant Kd.
Format: binding
Excerpt: (§2) Compounds (1) through (20) according to this invention were screened for their ability to bind to specified DNA target sequences, using DNase I footprinting. Generally, the procedure described in Dervan, WO 98/50582 (1998), was followed.
(§3) Three double stranded circular plasmids A, B, and C were used to prepare double stranded DNA-binding probes containing the target sequences for the DNase I footprint titration experiments. Plasmids A, B, and C had nucleotide sequences given by SEQ ID NO. I, SEQ ID NO. II, and SEQ ID NO. III, respectively.
(§4) The 3′-P32 end-labeled EcoRI/PvuII fragments from each plasmid were prepared by digesting the plasmids with EcoRI and PvuII with simultaneous fill-in using Sequenase v. 2.0, [alpha-P32]-deoxyadenosine-5′-triphosphate, and [alpha-P32]-thymidine-5′-triphosphate, and isolating the cloned fragments by nondenaturing gel electrophoresis. A and G sequencing reactions were carried out as described (See Maxam and Gilbert, Methods Enzymol., 1980, 65, 499-560; Iverson and Dervan, Methods Enzymol., 1987, 15, 7823-7830; Sambrook et al., 1989, Molecular Cloning, 2nd ed., Cold Spring Harbor Laboratory Press: Cold Spring Harbor, N.Y.) Standard methods were used for all DNA manipulations (Sambrook et al., ibid.) The cut sites for EcoRI and PvuII are indicated by bars in the respective maps of Plasmids A, B, and C in FIGS. 5, 6, and 7.
(§5) The 351 base pair dsDNA restriction fragment (SEQ ID NO. IV) of Plasmid A contained the target sequences AAAAAGCAAAAA, AAAAAGACAAAAA, and AAAAAGTACAAAAA. The 310 base pair dsDNA restriction fragment (SEQ ID NO. V) of Plasmid B contained the target sequences AGTACT, AATACT, and ATTACT. The 352 base pair dsDNA restriction fragment (SEQ ID NO. VI) of Plasmid C contained the target sequences TGACAATTAAT, GACAATTAATCA, AATTAATCAT, ACAATTA, and ACAATTAAT. These fragments were used for quantitative DNase I footprinting experiments. Compounds used in the method of this invention bind to at least one of the target sites with a equal to or less than 100 nM, preferably equal to or less than 50 nM, and more preferably equal to or less than 20 nM. The target sequences were selected for the identity with, or similarity to, promoter sites for bacterial genes.
(§6) Quantitative DNase I footprint titration experiments were carried out as described previously (Dervan, WO 98/50582, 1998) with the following changes. All reactions were carried out in a total volume of 400 μL, with compound stock solution or water added to 15,000 cpm radiolabeled restriction fragment affording final solution conditions of 10 mM Tris HCl, 10 mM KCl, 10 mM MgCl2, 5 mM CaCl2, pH 7.0 and 0.01 nM, 0.1 nM, 1.0 nM, 10.0 nM compound or no compound for reference lanes. The compounds were allowed to equilbrate at 22° C. for 16 h. Footprinting reactions were initiated with addition of 10 μL of a DNase I stock solution (at the appropriate concentration to give ˜50% intact DNA) containing 1 mM DTT and allowed to proceed for 7 min at 22° C. The reactions were stopped, ethanol precipitated, resuspended in loading buffer, heat denatured, and placed on ice as described previously (Dervan WO 98/50582, 1998). The reaction products were separated on a precast 8% polyacrylamide denaturing sequencing Castaway gel with 32 preformed wells from Stratagene in 1×TBE at 2000 V. Gels were dried according to the manufacturer and exposed to a storage phosphor screen (Molecular Dynamics). Quantitation and data analysis were carried out as described in Dervan, WO 98/50582, 1998.

SMILES | Kd [nM]
Cn1cc(NC(=O)c2cc(NC(=O)c3cc(NC(=O)c4ccc(Cl)cc4F)c[nH]3)cn2C)cc1C(=O)NCCN1CCOCC1 [Compound 10] | 5

These compounds were tested against target sequence ACAATTAAT (352 bp fragment, Plasmid C) (assay: Quantitative DNase I footprint titration). Details: 352 bp C, 22° C., pH 7.0, read-out: Dissociation Constant Kd.
Format: binding
Excerpt: as §2, §3, §4, §5, §6

Kd [nM] | SMILES
1 | Cn1cc(NC(=O)c2cc3ccccc3cn2)cc1C(=O)Nc1cc(C(=O)Nc2cc(C(=O)NCCN3CCCCC3)ns2)n(C)c1 [Compound 19]
5 | Cn1cc(NC(=O)c2cc(NC(=O)c3cc(NC(=O)c4cc5ccccc5cn4)cn3C)cn2C)cc1C(=O)NCCc1cccnc1 [Compound 14]

The compounds below were run against target sequence AATTAATCAT (352 bp fragment, Plasmid C) (assay: Quantitative DNase I footprint titration). Details: 352 bp C, 22° C., pH 7.0, read-out: Dissociation Constant Kd.
Format: binding
Excerpt: as §2, §3, §4, §5, §6

SMILES | Kd [nM]
Cn1cc(NC(=O)c2cc(NC(=O)c3cc(NC(=O)c4ccc(Cl)cc4F)c[nH]3)cn2C)cc1C(=O)NCCN1CCOCC1 [Compound 10] | 1

What follows are compounds tested against target sequence GACAATTAATCA (352 bp fragment, Plasmid C) (assay: Quantitative DNase I footprint titration). Details: 352 bp C, 22° C., pH 7.0, read-out: Dissociation Constant Kd.
Format: binding
Excerpt: as §2, §3, §4, §5, §6

Kd [nM] | SMILES
0.1 | Cn1cc(NC(=O)c2cc(NC(=O)c3cc(NC(=O)c4sc5ccccc5c4Cl)c[nH]3)cn2C)cc1C(=O)NCCN1CCOCC1 [Compound 9]

What follows are compounds tested on Candida albicans ATCC 38247 (assay: Antifungal MIC). Details: Col. F = C. albicans ATCC 38247.
Format: cell-based
Excerpt: as §1

Minimum Inhibitory Concentration (MIC) [mg/L] | SMILES
>32 | Cn1cc(NC(=O)c2cc3ccccc3cn2)cc1C(=O)Nc1cc(C(=O)Nc2cc(C(=O)NCCN3CCCCC3)ns2)n(C)c1 [Compound 19]
>32 | Cn1cc(NC(=O)c2cc(NC(=O)c3cc(NC(=O)c4cc5ccccc5cn4)cn3C)cn2C)cc1C(=O)NCCc1cccnc1 [Compound 14]
>32 | Cn1cc(NC(=O)c2cc(NC(=O)c3cc(NC(=O)c4sc5ccccc5c4Cl)c[nH]3)cn2C)cc1C(=O)NCCN1CCOCC1 [Compound 9]

SMILES | Minimum Inhibitory Concentration (MIC) [mg/L]
Cn1cc(NC(=O)c2cc(NC(=O)c3cc(NC(=O)c4ccc(Cl)cc4F)c[nH]3)cn2C)cc1C(=O)NCCN1CCOCC1 [Compound 10] | 8 to 32

These compounds were tested on methicillin resistant Staphylococcus aureus ATCC 33591 (assay: Murine neutropenic thigh model). Details: neutropenic CF1 mice, 80 mg/kg intravenously 2 h post infection, 6 hr after treatment, vehicle 7.83.
Format: in vivo
Description: A S. aureus ATCC 33591 culture was grown to log phase overnight and diluted in phosphate buffered saline (pH 7.2) to an optical density of about 0.1 at 600 nm, giving an approximate concentration of 10^8 cfu/mL. The suspension was diluted 1:100 in phosphate buffered saline (pH 7.2) for a final concentration of 10^6 cfu/mL.
Outbred female CFI mice (approx. 20 gram body weight) were rendered netutropenic by treatment with cyclophosphamide (200 mg/kg body weight, intraperitoneal injection) at 2 and 4 days prior to inoculation. Groups of 5 mice were inoculated with 0.05 mL of the bacteria (approx. 10^6 cfu/mL) into the anterior thigh. Each group was treated intravenously two hours post infection with vehicle (phosphate buffered saline) or test compound. The mice were sacrificed at either 6 or 24 hrs after treatment and thighs were collected aseptically. Each thigh was weighed, placed into sterile saline, and homogenized. The tissue homogenates were diluted appropriately for plating on agar plates. Colony counts were recorded (cfu/gram) and compared to control groups.

SMILES | Colony Count [log cfu/gram]
Cn1cc(NC(=O)c2cc(NC(=O)c3cc(NC(=O)c4sc5ccccc5c4Cl)c[nH]3)cn2C)cc1C(=O)NCCN1CCOCC1 [Compound 9] | 6.17

What follows are compounds tested on Streptococcus pneumoniae ATCC 51422 (assay: NCCLS broth microdilution MIC). Details: Col. E = S. pneumoniae ATCC 51422 (PRSP).
Format: cell-based
Excerpt: as §1

Minimum Inhibitory Concentration (MIC) | SMILES
++ (++ = MIC ≦ 1) | Cn1cc(NC(=O)c2cc3ccccc3cn2)cc1C(=O)Nc1cc(C(=O)Nc2cc(C(=O)NCCN3CCCCC3)ns2)n(C)c1 [Compound 19]
+ (+ = MIC ≦ 2) | Cn1cc(NC(=O)c2cc(NC(=O)c3cc(NC(=O)c4cc5ccccc5cn4)cn3C)cn2C)cc1C(=O)NCCc1cccnc1 [Compound 14]
++ (++ = MIC ≦ 1) | Cn1cc(NC(=O)c2cc(NC(=O)c3cc(NC(=O)c4sc5ccccc5c4Cl)c[nH]3)cn2C)cc1C(=O)NCCN1CCOCC1 [Compound 9]

SMILES | Minimum Inhibitory Concentration (MIC)
Cn1cc(NC(=O)c2cc(NC(=O)c3cc(NC(=O)c4ccc(Cl)cc4F)c[nH]3)cn2C)cc1C(=O)NCCN1CCOCC1 [Compound 10] | − (− = MIC > 2)

Each compound was assayed on Enterococcus faecium ATCC 51559 (assay: NCCLS broth microdilution MIC). Details: Col. D = E. faecium ATCC 51559 (VRE).
Format: cell-based
Excerpt: as §1

Minimum Inhibitory Concentration (MIC) | SMILES
++ (++ = MIC ≦ 1) | Cn1cc(NC(=O)c2cc3ccccc3cn2)cc1C(=O)Nc1cc(C(=O)Nc2cc(C(=O)NCCN3CCCCC3)ns2)n(C)c1 [Compound 19]
− (− = MIC > 2) | Cn1cc(NC(=O)c2cc(NC(=O)c3cc(NC(=O)c4cc5ccccc5cn4)cn3C)cn2C)cc1C(=O)NCCc1cccnc1 [Compound 14]
+ (+ = MIC ≦ 2) | Cn1cc(NC(=O)c2cc(NC(=O)c3cc(NC(=O)c4sc5ccccc5c4Cl)c[nH]3)cn2C)cc1C(=O)NCCN1CCOCC1 [Compound 9]

SMILES | Minimum Inhibitory Concentration (MIC)
Cn1cc(NC(=O)c2cc(NC(=O)c3cc(NC(=O)c4ccc(Cl)cc4F)c[nH]3)cn2C)cc1C(=O)NCCN1CCOCC1 [Compound 10] | + (+ = MIC ≦ 2)
